Test [1] deals with T1, Beta-3 adrenergic receptor (Homo sapiens, UniProt P13945). Nature of the test: Drug concentration which produces cAMP response equal to 50% of its maximal response against human beta 3-adrenoceptor in chinese hamster ovary cells was determined. The test is classed as functional, cell-based.
Target sequence in this assay (P13945 whole entry, looked up): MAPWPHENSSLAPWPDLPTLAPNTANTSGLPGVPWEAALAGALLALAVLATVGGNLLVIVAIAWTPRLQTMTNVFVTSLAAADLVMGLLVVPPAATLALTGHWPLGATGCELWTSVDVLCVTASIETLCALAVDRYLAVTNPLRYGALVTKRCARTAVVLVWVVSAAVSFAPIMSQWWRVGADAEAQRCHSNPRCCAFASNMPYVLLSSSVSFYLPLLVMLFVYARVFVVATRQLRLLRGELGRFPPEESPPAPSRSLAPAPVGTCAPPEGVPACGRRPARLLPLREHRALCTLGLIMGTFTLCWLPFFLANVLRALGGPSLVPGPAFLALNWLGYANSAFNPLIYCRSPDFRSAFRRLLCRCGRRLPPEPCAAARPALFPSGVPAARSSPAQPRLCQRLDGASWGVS
The target in test [2] is T1, Beta-3 adrenergic receptor. Kind of test: Intrinsic activity expressed as the percentage of maximal analogue response relative to the maximal response(100%) of isoproterenol against human beta-3-adrenoceptor using CRE-LUC assay. The format is functional.
Target sequence in this assay (P13945 whole entry, looked up): as above
Test [3] concerns the target Beta-1 adrenergic receptor (Homo sapiens) (UniProt P08588).
Test [4] deals with Beta-2 adrenergic receptor (Homo sapiens) (UniProt P07550).
Sequence of Beta-2 adrenergic receptor (Homo sapiens) (P07550 whole entry, looked up): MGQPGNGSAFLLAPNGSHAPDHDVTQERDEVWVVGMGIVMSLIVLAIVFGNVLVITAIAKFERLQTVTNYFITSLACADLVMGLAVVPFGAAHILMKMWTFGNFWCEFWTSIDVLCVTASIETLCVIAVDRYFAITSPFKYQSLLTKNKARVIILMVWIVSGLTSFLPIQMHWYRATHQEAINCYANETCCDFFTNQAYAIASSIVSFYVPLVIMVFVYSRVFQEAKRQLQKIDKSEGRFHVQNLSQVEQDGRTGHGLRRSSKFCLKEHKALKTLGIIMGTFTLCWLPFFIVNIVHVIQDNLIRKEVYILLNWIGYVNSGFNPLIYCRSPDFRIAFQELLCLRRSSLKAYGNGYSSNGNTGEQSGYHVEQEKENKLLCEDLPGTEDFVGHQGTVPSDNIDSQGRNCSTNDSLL
Test [5] deals with T1, Beta-3 adrenergic receptor. Kind of test: Drug concentration which produces a cAMP response equal to 50% of its maximal response against human beta-3-adrenoceptor using CRE-LUC assay. The test is classed as functional.
Target sequence in this assay (P13945 whole entry, looked up): as the sequence (P13945 whole entry, looked up) above
Test [6] has as its target Beta-1 adrenergic receptor (Homo sapiens) (UniProt P08588). To be noted: ovary.
In test [7] the target is Beta-2 adrenergic receptor (Homo sapiens) (UniProt P07550). To be noted: ovary.
The target of test [8] is T1, Beta-3 adrenergic receptor. To be noted: ovary.
Target sequence in this assay (P13945 whole entry, looked up): as above
Description: Drug concentration which produces cAMP response equal to 50% of its maximal response against human beta-3-adrenoceptor expressed in chinese hamster ovary cells was determined
Test [9] has as its target T1, Beta-3 adrenergic receptor. Nature of the test: Binding Affinity against human Beta-3 adrenergic receptor expressed in Chinese hamster ovary(CHO) cells was measured by using [125I]ICYP radioligand. The format is cell-based.
Target sequence in this assay (P13945 whole entry): as the sequence (P13945 whole entry, looked up) above
The target of test [10] is Beta-1 adrenergic receptor (Homo sapiens) (UniProt P08588). Conditions: ovary. This is another data set of the same source.
Sequence of Beta-1 adrenergic receptor (Homo sapiens) (P08588 whole entry, looked up): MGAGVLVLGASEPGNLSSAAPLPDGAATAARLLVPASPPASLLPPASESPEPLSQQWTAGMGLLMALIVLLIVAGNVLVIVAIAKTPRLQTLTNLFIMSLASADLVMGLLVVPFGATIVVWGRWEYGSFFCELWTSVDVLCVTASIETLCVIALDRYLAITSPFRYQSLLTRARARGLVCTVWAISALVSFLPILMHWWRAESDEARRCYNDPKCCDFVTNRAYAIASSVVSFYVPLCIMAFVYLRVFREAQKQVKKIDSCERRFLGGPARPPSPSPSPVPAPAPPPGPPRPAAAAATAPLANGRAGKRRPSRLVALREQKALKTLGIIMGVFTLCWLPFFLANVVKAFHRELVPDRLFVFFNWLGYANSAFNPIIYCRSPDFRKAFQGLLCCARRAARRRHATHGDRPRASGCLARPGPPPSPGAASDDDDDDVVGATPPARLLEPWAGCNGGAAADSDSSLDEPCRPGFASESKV
Description: Drug concentration which produces cAMP response equal to 50% of its maximal response against human beta-1-adrenoceptor in chinese hamster ovary cells was determined
Test [11] addresses Beta-2 adrenergic receptor (Homo sapiens) (UniProt P07550). Conditions: ovary. The source holds these as a separate data set.
The target of test [12] is T1, Beta-3 adrenergic receptor. Kind of test: Drug concentration which produces cAMP response equal to 50% of its maximal response against human beta-3-adrenoceptor in chinese hamster ovary cells was determined; Not active. The test is classed as functional, cell-based.
Target sequence in this assay (P13945 whole entry, looked up): as the sequence (P13945 whole entry, looked up) above
In test [13] the target is Beta-2 adrenergic receptor (Homo sapiens) (UniProt P07550). Nature of the test: Drug concentration which produces cAMP response equal to 50% of its maximal response against human beta-2-adrenoceptor in chinese hamster ovary cells was determined; Not active. The format is functional, cell-based.
Test [14] deals with Beta-1 adrenergic receptor (Homo sapiens) (UniProt P08588). Nature of the test: Intrinsic activity expressed as the percentage of maximal analogue response relative to the maximal response(100%) of isoproterenol against human beta-1-adrenoceptor. The format is functional.
The target in test [15] is T1, Beta-3 adrenergic receptor. Kind of test: Intrinsic activity expressed as the percentage of maximal analogue response relative to the maximal response(100%) of isoproterenol against human beta-3-adrenoceptor. The format is functional.
Target sequence in this assay (P13945 whole entry, looked up): as above
For test [16], the target named is Beta-1 adrenergic receptor (Homo sapiens) (UniProt P08588). Kind of test: Intrinsic activity expressed as the percentage of maximal analogue response relative to the maximal response(100%) of isoproterenol against human beta-1-adrenoceptor using CRE-LUC assay. The test is classed as functional.

Calls of active or inactive are those of the source. The calls are words filed in the database; no cut-off is given here. Some results are limits rather than exact numbers.

`COc1c(I)cc(CC2NCCc3nc(N)sc32)cc1I` (stereo not drawn): the pKact in test [1] was 6.95; in test [5], 6.71. Also, the Intrinsic activity in test [2] turned out to be 62. For the same compound, the pKact entry in [3], in test [4], in test [6] and in [7] was “inactive” each time.

`CC(C)NCC(O)c1ccc(O)c(O)c1` (stereo not drawn) had a pKact in test [8] of 7.37.

For orientation: Ki means a dissociation constant, usually derived from enzyme kinetics or from competition with a known ligand. On to `COc1c(I)cc(CC2NCCc3cc(O)c(O)cc32)cc1I` (stereo not drawn), for which, in test [9], affinity was put at a Ki of 0.0214 µM. For the same compound, the pKact in test [8] was found to be 8.76; in test [10], 8.11; in test [11], 8.47.

On to `COc1c(I)cc(CC2NCCc3nc(NC(C)=O)sc32)cc1I` (stereo not drawn), for which the pKact result in [12], in [13] and in [6] was “inactive” each time.

`COc1cc(CC2NCCc3nc(N)sc32)cc(OC)c1OC` (stereo not drawn): the pKact result in test [13] and in test [6] was “inactive” each time. This compound displayed a pKact in test [8] of 5.06. For the same compound, the Intrinsic activity in test [14] was less than 10; in [15], 54.

Regarding `COc1cc(CCNCCc2cnc(N)s2)cc(OC)c1OC`, the pKact result in test [12], in [13] and in [6] was “inactive” each time. Moreover, the Intrinsic activity in test [2] and in test [16] was less than 10 in each case.

In the case of `COc1cc(C[C@@H]2NCCc3cc(O)c(O)cc32)cc(OC)c1OC`, the pKact in test [8] came out at 8.6; in [10], 8.7; in test [11] it was 8.33.

For the origin of these results see ChEMBL document CHEMBL1132639, “2-Amino-4-benzyl-4,5,6,7-tetrahydrothiazolo[5,4-c]pyridines: novel selective beta3-adrenoceptor agonists” (J Med Chem, 1999).
